Results from the NIST ThermoML archive (doi:10.1021/je200309v).
± gives the expanded uncertainty stated by the source.

Test: mn = molality of the nth substance listed, in mol/kg
Conditions: 101 kPa, Liquid, Alternating current cell with electrodes

CC[N+](CC)(CC)CC.F[B-](F)(F)F [tetraethylammonium tetrafluoroborate] + CC1COC(=O)O1
electrical conductivity [S/m]
Conditions	m1 = 0.1593	m1 = 0.461	m1 = 0.5658	m1 = 0.7282	m1 = 0.8234	m1 = 0.9666	m1 = 1.186	m1 = 1.425
253.15 K	0.1317 ± 0.0013	0.278 ± 0.0028	0.3133 ± 0.0031	0.3523 ± 0.0035	0.366 ± 0.0037	0.3749 ± 0.0037	0.359 ± 0.0036	–
273.15 K	0.239 ± 0.0024	0.519 ± 0.0052	0.591 ± 0.0059	0.676 ± 0.0068	0.712 ± 0.0071	0.745 ± 0.0075	0.75 ± 0.0075	0.689 ± 0.007
293.15 K	0.364 ± 0.0036	0.812 ± 0.0081	0.929 ± 0.0093	1.07 ± 0.011	1.128 ± 0.011	1.19 ± 0.012	1.201 ± 0.012	1.116 ± 0.011
313.15 K	0.516 ± 0.0052	1.16 ± 0.012	1.333 ± 0.013	1.543 ± 0.015	1.635 ± 0.016	1.73 ± 0.017	1.77 ± 0.018	1.69 ± 0.017
333.15 K	0.678 ± 0.0068	1.535 ± 0.015	1.76 ± 0.018	2.049 ± 0.02	2.18 ± 0.022	2.314 ± 0.023	2.4 ± 0.024	2.307 ± 0.023
